Laboratory results: PubChem BioAssay AID1996
In brackets after ≈: the same amount, converted by molar mass.

conditions: buffer; pH 7.4; 200.0 µM

Compound	solubility kinetic [µg/mL]
Cc1ccc(NC(=O)CCS(=O)(=O)c2cccc3nonc23)cc1	18.1 (≈ 52.4 µM)
O=S(=O)(Nc1ccon1)c1cc(Cl)ccc1Cl	43.3 (≈ 148 µM)
Cc1ccccc1NC(=O)COC(=O)[C@@H]1CCCN1C(=O)c1cccs1	> 55.9
Cc1oc(-c2ccc(Cl)cc2)cc1C(=O)NC1CCN(Cc2ccccc2)CC1	1 (≈ 2.45 µM)
O=C(NC12CC3CC(CC(C3)C1)C2)c1cncc(Br)c1	8.5 (≈ 25.4 µM)
COc1ccc(C(=O)O/N=C(\C)c2cnccn2)cc1	9 (≈ 33.2 µM)
S=C1NC2(CCCCCC2)N=C1c1ccccc1	2.8 (≈ 10.8 µM)
Cc1cc(C(=O)Nc2ccc(C(=O)O)cc2)c(C)o1	> 38.9
CCOC(=O)C1(Cc2ccccc2C)CCCN(C(=O)CCC(=O)OC)C1 (stereo not drawn)	53 (≈ 141 µM)
NS(=O)(=O)c1ccc(CCNC(=O)CN2CCN(S(=O)(=O)c3ccccc3F)CC2)cc1	> 72.7
CC(=O)Nc1csc2ccccc12	> 28.7
Cn1c(CO)nc2c3ccccc3ccc21	> 31.8
O=C(O)CNC1c2ccccc2CSc2ccccc21 (stereo not drawn)	> 42.8
Clc1ccc(-c2ncc3ccccn23)c(Cl)c1	22.5 (≈ 85.5 µM)
Cc1c(C(=O)NCc2ccco2)oc2ccccc12	6.3 (≈ 24.7 µM)
O=c1c2[nH]cnc2n(-c2ccccc2)c(=O)n1Cc1ccccc1	35.1 (≈ 110 µM)
NC(=O)c1cc(S(=O)(=O)NCc2ccccc2)cs1	> 44.5
Cc1ccc(-c2cc(C(=O)N3CC4(C)CC3CC(C)(C)C4)no2)cc1 (stereo not drawn)	< 0.4
Cn1cccc1C(=O)OCC(=O)NC(=O)c1ccc(Cl)cc1	5.4 (≈ 16.8 µM)
O=C(NC1CCCCC1)c1cc([N+](=O)[O-])ccc1N1CCCC1	3.3 (≈ 10.4 µM)
N#C/C(=C(/O)c1ccc(Cl)cc1)c1nc2ccccc2[nH]1	< 0.2
COc1ccc(C(C)NC(=O)Cc2cccs2)cc1 (stereo not drawn)	37.1 (≈ 135 µM)
O=C(O)CCC(=O)Nc1ccc(-c2nc3ccc(C(=O)c4ccccc4)cc3[nH]2)cc1	60.1 (≈ 145 µM)
CC#CC[N+](C)(C)CCCCCCCCCC.[Br-]	> 47.8

Compound	solubility kinetic [µg/mL]
COc1ccc(C2NC(=O)C(C#N)=C(S)N2c2ccccc2)cc1OC (stereo not drawn)	> 55.1
CCOc1ccc2[nH]c3c(c2c1)CNCC3	25.9 (≈ 120 µM)
Cc1cccc(C)c1NC(=O)C(=O)NCCc1c[nH]c2ccccc12	1.3 (≈ 3.88 µM)
CC(C)(C)OC(=O)CN1c2cccc3cccc(c23)S1(=O)=O	14.9 (≈ 46.7 µM)
COc1ccc(C(=O)NC(C(=O)NCC2CCCO2)C(C)C)cc1 (stereo not drawn)	> 50.2
COC(=O)c1c(C)[nH]c(C(=O)C(C)OC(=O)c2cnc(C)cn2)c1C (stereo not drawn)	49.2 (≈ 142 µM)
Cc1csc(NC(=O)c2ccc(Cl)nc2)n1	> 38.1
Cc1ccccc1-n1nc2c(c1NC(=O)CC(C)C)CS(=O)C2 (stereo not drawn)	> 49.7
Cc1csc(SCC(=O)Nc2cc(C(N)=O)cc(C(N)=O)c2)n1	51.6 (≈ 147 µM)
CCN(CC)c1nc(N)n(CCSC(=S)N(C)C)c(=O)n1	45.1 (≈ 136 µM)
CCOC(=O)C1CCCN(c2c(NCCC(C)C)c(=O)c2=O)C1 (stereo not drawn)	44.5 (≈ 138 µM)
CC(=O)Nc1ccccc1NC(=O)c1ccccc1-c1ccccc1	> 49.6
NC(=S)Nc1ccc(F)c(F)c1F	> 30.9
O=C(NCc1ccccc1)c1cc[n+]([O-])cc1	> 34.2
CC1CCN(S(=O)(=O)c2ccc(NC(=O)C3CC3)cc2)CC1	37.2 (≈ 115 µM)
c1ccc(Cc2c[nH]c3ccccc23)cc1	6.7 (≈ 32.3 µM)
COc1ccc2cc(Br)ccc2c1CC(=O)N1CCCC1	3.2 (≈ 9.19 µM)
COc1cc2c(cc1OC)C(c1ccc(Cl)cc1)=NCC2	41.5 (≈ 138 µM)
Cc1cc2oc(=O)cc(CN3CCOCC3)c2cc1C(C)C	3.4 (≈ 11.3 µM)
CCOc1cc(C=O)ccc1OCC(N)=O	> 33.5
C/C(=N\NC(=O)CCCNc1cccc(C)c1)c1ccncc1	> 46.6
Cc1cc(C)c(S(=O)(=O)c2ccc(Cl)cc2)c(=O)[nH]1	19.8 (≈ 66.5 µM)
CCc1ccc(N2CC(C)Cn3c2nc2c3c(=O)[nH]c(=O)n2C)cc1 (stereo not drawn)	7.3 (≈ 21.5 µM)
O=C1N(c2ccccc2)C[C@@H]2C[C@@H](c3cccs3)N3CCC[C@@]123	41.8 (≈ 129 µM)

Compound	solubility kinetic [µg/mL]
COC(=O)c1sccc1NC(=S)N1C(C)CCCC1C (stereo not drawn)	20.3 (≈ 65 µM)
CSc1ccc(Cl)c(C(=O)Nc2cc(S(=O)(=O)N3CCOCC3)ccc2N2CCOCC2)c1	3.4 (≈ 6.64 µM)
CCc1ccc(C(=O)COC(=O)CNC(=O)C2CCCCC2)cc1	18.1 (≈ 54.6 µM)
Cc1ccc(NC(=O)Nc2cnccn2)cc1C	9.5 (≈ 39.2 µM)
O=C(c1c[nH]c2ccccc2c1=O)N1CCCCCC1	> 40.5
CCOC(=O)C1C2C=CC3(CN(Cc4ccccc4)C(=O)C13)O2 (stereo not drawn)	> 47
NC(=O)CSc1nc2ccc([N+](=O)[O-])cc2[nH]1	> 37.8
CC(C)c1ccc(S(=O)(=O)NCc2ccc3c(c2)OCO3)cc1	1.9 (≈ 5.7 µM)
COC(=O)c1c(C(=O)OC)c2ccccn2c1C(=O)c1ccccc1	6.2 (≈ 18.4 µM)
COc1cccc(OC)c1OC(=O)C1CC(=O)N(c2ccc3c(c2)OCCO3)C1 (stereo not drawn)	> 59.9
O=C(Cc1ccccc1[N+](=O)[O-])NCCCc1ccccc1	43.2 (≈ 145 µM)
Cc1nc(NCCc2ccccc2)sc1C(=O)O	38.7 (≈ 148 µM)
CSc1nc(=S)n(-c2ccc([N+](=O)[O-])cc2)c(C)c1C(C)=O	48.2 (≈ 144 µM)
O=C(Cc1ccccc1[N+](=O)[O-])NCCc1ccc(F)cc1	44.6 (≈ 148 µM)
CN(C)S(=O)(=O)c1cccc(NC(=O)COC(=O)[C@H](Cc2ccccc2)NC(=O)c2ccco2)c1	24.2 (≈ 48.4 µM)
CCCCOc1ccc(C2C(C(=O)c3ccc(C)o3)=C(O)C(=O)N2Cc2ccco2)cc1 (stereo not drawn)	46.9 (≈ 108 µM)
CCc1ccccc1N1CN(Cc2cccnc2)CNC1=S	> 46.9
CC(=NCCN1CCCCC1)c1c(O)n(-c2ccccc2)c(=O)[nH]c1=O	> 53.5
COc1ccc(N/C=C/C(=O)c2ccccc2)cc1	< 0.5
CCOc1ccc(C(=O)Nc2ccc3c(c2)OCCO3)cc1	< 0.6
CCOc1ccc(N(C(C)C(=O)N2CCCC2)S(C)(=O)=O)cc1 (stereo not drawn)	> 51.1
O=C(COc1ccc2c(c1)OCO2)Nc1nccs1	20.9 (≈ 75.1 µM)
C/C=C/c1ccc(OCC(=O)NCc2ccccc2OC)c(OC)c1	2.9 (≈ 8.49 µM)
Cc1ccc(S(=O)(=O)NC(C)C(=O)NCc2ccc(Cl)cc2)cc1 (stereo not drawn)	6.9 (≈ 18.8 µM)

Compound	solubility kinetic [µg/mL]
O=C(CNC(=O)c1ccccc1Cl)OC1CCOC1=O (stereo not drawn)	42.1 (≈ 141 µM)
O=S(=O)(c1ccc(SCCO)nc1)N1CCOCC1	> 45.7
O=C(Nc1cccc(S(=O)(=O)NC2=NCCC2)c1)c1ccccc1F	> 54.2
CCNC(=O)C12CCC(C)(c3nc4cc(C)c(C)cc4nc31)C2(C)C (stereo not drawn)	47.4 (≈ 140 µM)
Cc1cccc(C)c1N1C(=O)[C@@H]2C(c3ccccc3Cl)=NO[C@@H]2C1=O	39.6 (≈ 112 µM)
COc1ccc(C(=O)Nc2ccccc2C(=O)N2CCOCC2)cc1	> 51.1
O=C(O)c1ccc(N=Cc2c(O)ccc3oc4c(c23)CCCC4)cc1	> 50.3
COc1cc(C)ccc1OCC(=O)OCC(=O)NCC1CCCCC1	> 52.4
C/C(=N/NC(=O)CNC(=O)c1ccco1)c1ccco1	> 41.3
O=C(CN1C(=O)c2ccccc2S1(=O)=O)NC1CCCCC1	> 48.4
Cc1cccc(OCCCn2c(=O)oc3ccccc32)c1	4.6 (≈ 16.2 µM)
Cc1ccc(C(CC(=O)N2CCCC2)c2ccccc2)c(O)c1 (stereo not drawn)	> 46.4
CC(C)Cn1c(N)c(C(=O)COC(=O)c2cc3ccccc3cc2O)c(=O)n(C)c1=O	4.5 (≈ 10.6 µM)
Cc1ccsc1C(=O)OCC(=O)N1CCN(c2ccccc2)CC1	> 51.7
O=[N+]([O-])c1ccc(NCc2ccc(Cl)cc2)c2ccncc12	0.3 (≈ 0.956 µM)
CCOc1ccc(C(=O)N2CCN(c3ccccn3)CC2)cc1OCC	> 53.3
CN1CCN(CCCNc2c(C=O)c(=O)[nH]c3ccccc23)CC1	34.1 (≈ 104 µM)
CC[N+](C)(C)c1cccc(O)c1.[Cl-]	> 30.3
O=C(CCN1C(=O)c2cccc([N+](=O)[O-])c2C1=O)Nc1nccs1	49.3 (≈ 142 µM)
Cn1c(/C(C#N)=C(\O)c2ccc([N+](=O)[O-])s2)nc2ccccc21	< 0.2
Cl.O=C(O)CC1NCCc2ccccc21 (stereo not drawn)	> 34.2
Cn1c(=O)[nH]c2ncn(C)c2c1=O	> 27
NS(=O)(=O)c1ccc(CNC(=O)Cc2cccs2)cc1	45.1 (≈ 145 µM)
CN(CC(=O)Nc1ccc(F)c(F)c1F)C(=O)C1CCCCC1	> 49.3

Compound	solubility kinetic [µg/mL]
COc1ccc(Cl)cc1S(=O)(=O)Nc1noc2ccccc12	47 (≈ 139 µM)
Nc1ccc(N2CCN(c3ccccc3)CC2)c(F)c1	> 40.7
c1ccc(CNc2nc(-c3cccnc3)nc3ccccc23)cc1	13.6 (≈ 43.5 µM)
CC(C)NC(=O)C(=O)NCc1ccccn1	> 33.2
COc1ccc(Cl)cc1C(=O)OCC(=O)c1ccc[nH]1	8.4 (≈ 28.6 µM)
COC(=O)CC(c1ccc(C(C)C)cc1)n1cccc1 (stereo not drawn)	2.5 (≈ 9.21 µM)
O=C(COc1ccccc1[N+](=O)[O-])NCC1(N2CCOCC2)CCCCC1	> 56.6
Cc1cc(NC(=O)c2cc(-c3ccc(O)cc3)on2)no1	0.5 (≈ 1.75 µM)
COc1nc(SCC(=O)Nc2ccccc2Cl)nc(N(C)C)n1	20.4 (≈ 57.7 µM)
O=C(Nc1cccnc1)c1cc(-c2ccc(Cl)cc2)on1	0.3 (≈ 1 µM)
CCc1ccc(CN(C)C(=O)c2cc(=O)c3ccccc3o2)cc1	35 (≈ 109 µM)
Br.Oc1ccc(-c2cn3ccccc3n2)cc1	36.5
CC(=O)C(Cc1ccc(Cl)nc1)Cc1ccc(Cl)nc1	44.9 (≈ 145 µM)
Cc1cc(-c2nnc(CCC(=O)NCc3ccc(F)c(F)c3)o2)no1	> 52.2
COC(=O)CN1CCN(C(=O)c2ccco2)CC1	> 37.8
O=C(Nc1ccc(NC(=O)c2cccs2)cc1)c1cccnc1	0.4 (≈ 1.24 µM)
Cc1cc(C(=O)O)c(C)n1C1CC1	> 26.9
CCC(C(=O)NC1CCCCCC1)c1ccccc1 (stereo not drawn)	33.4 (≈ 129 µM)
N#Cc1ccc(S(=O)(=O)Nc2ccc3ccccc3n2)cc1	27 (≈ 87.3 µM)
O=[N+]([O-])c1ccc(Cl)cc1NCC1CCCO1 (stereo not drawn)	28 (≈ 109 µM)
COc1ccc(OCCC(=O)Nc2ccc(S(N)(=O)=O)cc2)cc1	48.1 (≈ 137 µM)
O=C(COC(=O)COc1ccccc1)Nc1ccc2c(c1)OCCO2	15.3 (≈ 44.6 µM)
